Where a SMILES comes first, the peptide text is derived from it. The star is where a group is joined. Oxazole(5-CO) = O=C(c1cnco1)*; Crotonyl(E) = C/C=C/C(=O)*; 2Furoyl = O=C(c1ccco1)*; Butyryl = CCCC(=O)*
Biological target: T1, AF9 YEATS (His-AF9) (Homo sapiens, UniProt P42568)
T1 construct: His-AF9 (aa 1-149, EpiCypher); purchased EpiCypher
T1 sequence (P42568 1-149): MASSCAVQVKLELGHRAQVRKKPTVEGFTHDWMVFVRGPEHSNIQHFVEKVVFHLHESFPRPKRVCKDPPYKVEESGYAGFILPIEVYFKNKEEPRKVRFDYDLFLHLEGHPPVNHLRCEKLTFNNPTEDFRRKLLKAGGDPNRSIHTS
Test: Biolayer interferometry (BLI) binding to AF9 YEATS
Description: These potent inhibitors were then tested to confirm their selectivity for ENL YEATS over AF9 YEATS since the two YEATS domains share high sequence and structure homology. One potential of using ncAA-containing phage display for active site-directed ligand search is the possibility of amino acids flanking the ncAA in a selected peptide to selectively engage the target over a close homologue. We wanted to validate this potential as well. Selective targeting of ENL YEATS is also preferred in leukemia interventions as it plays a pivotal role in the progression and maintenance of several AMLs and poses minimal harm to normal hematopoietic stem cells upon inhibition. […] We propose that the selectivity arises from the peptide residues interacting with surface areas adjacent to the active site of ENL YEATS. […] Similarly, BLI analyses were conducted to examine preferential binding of inhibitors to ENL YEATS. […] Two previous publications have documented peptide-based YEATS inhibitors featuring alkylated lysine residues.[42],[43] […]
Biolayer Interferometry to Validate ENL Ligands:
His-ENL, His-AF9 (aa 1-149, EpiCypher), His-GAS41 (aa 15-160, EpiCypher), and YEATS2-His (aa 200-345, EpiCypher) were reconstituted in water and diluted into assay buffer (20mM Tris, 300 mM NaCl, pH 7.9) for immobilization onto Octet Ni-NTA biosensors (Sartorius). Lyophilized peptides were dissolved in DMF and diluted to designated concentrations in assay buffer. Biolayer interferometry assays were performed in 96 well plates (GreinerBio-One, polypropylene, flat-bottom) using an Octet Red96 System (Sartorius). Wells were filled with 200 μL of assay buffer, blocking buffer (assay buffer + 0.1% BSA), protein solution, peptide solution, regeneration solution, and reload solution. For immobilization, His-tagged proteins were immobilized onto Ni-NTA sensors at 20 for 600 s. Sensors were then dipped into blocking buffer for 180 s, assay […] buffer for 300 s, peptide solution for 300 s, and back to assay buffer for 300 s. If multiple samples were tested, Ni-NTA sensors can be reconditioned in regeneration (10 mM glycine, pH 1.7) solution followed by reload solution (10 mM NiCl2) for 30 and 60 s, respectively. Measurements were carried out at 30 °C. Data were analyzed within the ForteBio Data Analysis software. […]
The AlphaScreen assay was carried out in 384-well plates. […] AlphaScreen-signals were detected by a multi-mode microplate reader (BioTeK Synergy Neo2) equipped with an Alpha-laser (PerkinElmer). The KD value was determined from the plot using nonlinear regression of variable slope (four parameters) and curve fitting performed in GraphPad Prism. […]
The AlphaScreen assay conditions are essential the same as the previous described. […] IC50 values were determined from the plot using […]

SMILES | Kd [nM]
C/C=C/C(=O)NCCCC[C@H](NC(=O)[C@H](Cc1ccc(O)cc1)NC(=O)[C@H](CS)NC(=O)[C@H](Cc1ccc(O)cc1)NC(=O)[C@@H](NC(=O)[C@H](CC(=O)O)NC(=O)[C@@H](N)Cc1ccc(O)cc1)C(C)C)C(N)=O [ENL-S1c] (H-YDVYCYK(Crotonyl(E))-NH2) | 147
CC(C)[C@H](NC(=O)[C@H](CC(=O)O)NC(=O)[C@@H](N)Cc1ccc(O)cc1)C(=O)N[C@@H](Cc1ccc(O)cc1)C(=O)N[C@@H](CS)C(=O)N[C@@H](Cc1ccc(O)cc1)C(=O)N[C@@H](CCCCNC(=O)c1cnco1)C(N)=O [ENL-S1o] (H-YDVYCYK(Oxazole(5-CO))-NH2) | 55.1
CCCC(=O)NCCCC[C@H](NC(=O)[C@H](Cc1ccc(O)cc1)NC(=O)[C@H](CS)NC(=O)[C@H](Cc1ccc(O)cc1)NC(=O)[C@@H](NC(=O)[C@H](CC(=O)O)NC(=O)[C@@H](N)Cc1ccc(O)cc1)C(C)C)C(N)=O [ENL-S1] (H-YDVYCYK(Butyryl)-NH2) | 205
CC(C)[C@H](NC(=O)[C@H](CC(=O)O)NC(=O)[C@@H](N)Cc1ccc(O)cc1)C(=O)N[C@@H](Cc1ccc(O)cc1)C(=O)N[C@@H](CS)C(=O)N[C@@H](Cc1ccc(O)cc1)C(=O)N[C@@H](CCCCNC(=O)c1ccco1)C(N)=O [ENL-S1f] (H-YDVYCYK(2Furoyl)-NH2) | 144

From PMC11046469, “Leveraging a Phage-Encoded Noncanonical Amino Acid: A Novel Pathway to Potent and Selective Epigenetic Reader Protein Inhibitors” (ACS Central Science, 2024)
